Measurements taken from patent publication US10023836B2, “Medium for yeasts” (YAMAGUCHI UNIVERSITY, priority 2012, dated 2018).
Read-outs that look alike come from different tables or passages of the source.

Experiments:
[1] = test system: RAK3599 strain; assay: Investigation with AID and aY-AID culture medium (FIGS. 29 to 39); type: cell-based, Saccharomyces cerevisiae; conditions: for effect on proliferation when added at high concentrations: up to 1% or up to 0.2500%; for preferred concentration / content: AID or aY-AID culture medium
Method: As shown in the following, an investigation was conducted into concentrations of each amino acid and a substitution potential of pantothenic acid for the amino acid in the AID culture medium. A suitable YPD culture medium was used as a control.
Next, the amino acids asparagine, isoleucine, phenylalanine, and valine were each adjusted to a culture medium additive concentration of […], 0.0312%, 0.0625%, 0.1250%, and 0.2500%, and OD600 was measured after 24 hours.
Isoleucine concentration in the aY-AID culture medium was adjusted to 0, 0.01 mg/mL, 0.1 mg/mL, 0.5 mg/mL, and 1 mg/mL, respectively, and proliferation of the RAK3599 strain was investigated.
Phenylalanine concentration in the aY-AID culture medium was adjusted to 0, 0.01, 0.1, 0.5, and 1 mg/mL, respectively, and proliferation of the RAK3599 strain was investigated.
Valine concentration in the aY-AID culture medium was adjusted to 0, 0.01, 0.1, 0.5, and 1 mg/mL, respectively, and proliferation of the RAK3599 strain was investigated.
Serine concentration in the AID culture medium was adjusted to 0, 0.01 mg/mL, 0.1 mg/mL, 0.5 mg/mL, and 1 mg/mL, respectively, and proliferation of the RAK3599 strain was investigated.
Threonine concentration in the AID culture medium was adjusted to 0, 0.01, 0.1, 0.5, and 1 mg/mL, respectively, and proliferation of the RAK3599 strain was investigated.
Asparagine concentration in the AID culture medium was adjusted to 0, 0.01, 0.1, 0.5, and 1 mg/mL, respectively, and proliferation of the RAK3599 strain was investigated.
An investigation was conducted into vitamins contained in the AID culture medium. […]

[2] = test system: RAK2683 yeast strain; assay: Investigation of nitrogen source used singly in MM culture medium instead of ammonium sulfate (Table 4); type: cell-based, Saccharomyces cerevisiae; conditions: Table 4 conditions
[3] = test system: RAK3599 strain; assay: Vitamin and FeCl3 concentration in AKD′ culture medium (FIGS. 22 to 28); type: cell-based, Saccharomyces cerevisiae
Method: (§1) In a case where no special provisions are made, a procedure for a cultivation experiment using the culture medium to be investigated for proliferation was such that a yeast undergoing investigation was pre-cultured in a YPD liquid culture medium at 28° C. for 24 hours, after which the yeast was adjusted such that OD600=20. […] In addition, OD600 was measured every 15 minutes by a spectrophotometer (Cell density meter co8000, WPA). Hereafter, data is represented by graphs for a case using the automatic spectrophotometer; however, these graphs are primarily used to compare the slope of logarithmic growth phase proliferation curves for each culture medium, and because OD600 is measured without dilution, values where OD600=3 to 3.5 or more may be incorrect.
Pyridoxine concentration in the AKD′ culture medium was adjusted to 0, 0.004, 0.04, 0.4, 4, and 40 μg/mL, respectively, and proliferation of the RAK3599 strain was investigated.
Pantothenic acid concentration in the AKD′ culture medium was adjusted to 0, 0.004, 0.04, 0.4, 4, and 40 μg/mL, respectively, and proliferation of the RAK3599 strain was investigated.
Thiamine concentration in the AKD′ culture medium was adjusted to 0, 0.004, 0.04, 0.4, 4, and 40 μg/mL, respectively, and proliferation of the RAK3599 strain was investigated.
Nicotinic acid concentration in the AKD′ culture medium was adjusted to 0, 0.004, 0.04, 0.4, 4, and 40 μg/mL, respectively, and proliferation of the RAK3599 strain was investigated.
Myo-inositol concentration in the AKD′ culture medium was adjusted to 0, 0.02 μg/mL, 0.2 μg/mL, 2 μg/mL, 20 μg/mL, and 200 μg/mL, respectively, and proliferation of the RAK 3599 strain was investigated.
FeCl3 concentration in the AKD′ culture medium was adjusted to 0, 0.002, 0.02, 0.2, 2, and 20 μg/mL, respectively, and proliferation of the RAK3599 strain was investigated.

[4] = test system: Saccharomyces cerevisiae RAK3599 strain; assay: SynAA culture medium: elimination of single components and inorganic ion concentration; type: cell-based; conditions: for OD600 for 1/100 solutions after 42 hours: SynAA culture medium; for essentiality for increasing proliferation: one component of the vitamin mix eliminated from SynAA culture medium
Method: as §1
Culture mediums were prepared in which one component each of the components configuring the inorganic ion mix was eliminated from the SynAA culture medium, and OD600 was measured. […] Thereafter, an investigation specifically of inorganic ion concentration was conducted. […] An investigation was conducted using RAK3599 strain (hereafter, simply referred to as “RAK3599 strain”), which is a strain of Saccharomyces cerevisiae not having a particular nutritional requirement. Where no subsequent special provisions were made, proliferation was investigated by performing roller tube culture for an appropriate amount of time at 28° C. and measuring OD600.
MgSO4 concentration in the SynAA culture mediums was adjusted to 0%, 0.0001%, 0.001%, 0.01%, 0.1%, and 1%, respectively, and proliferation of the RAK3599 strain was investigated. […] Next, MgCl2 concentration in the SynAA culture mediums was adjusted to 0.001%, 0.01%, 0.1%, and 1%, respectively, and proliferation of the RAK3599 strain was investigated.
A culture medium was prepared in which one component each of the components configuring the vitamin mix was eliminated from the SynAA culture medium, with the SynAA culture medium as the control, and proliferation of the RAK3599 strain was investigated.

[5] = aY-AID culture medium, concentration of the substance 0
[6] = aY-AID culture medium, concentration of the substance 0.01 mg/mL
[7] = aY-AID culture medium, concentration of the substance 0.1 mg/mL
[8] = aY-AID culture medium, concentration of the substance 0.5 mg/mL
[9] = aY-AID culture medium, concentration of the substance 1 mg/mL

Structure (SMILES): C[C@H](N)C(=O)O [Alanine, L-Alanine]
- effect on proliferation when added at high concentrations ([1]; AID culture medium): a positive influence was imparted to proliferation
- content at which the slope of the proliferation curve is greatest ([1]; aY-AID culture medium): around 1 mg/mL
- OD600 after 24 hours ([1]; aY-AID culture medium, alanine 0 mg/mL): 17
- OD600 after 24 hours ([1]; aY-AID culture medium, alanine 0.1 mg/mL): 18
- OD600 after 24 hours ([1]; aY-AID culture medium, alanine 1 mg/mL): 18
- OD600 after 24 hours ([1]; aY-AID culture medium, alanine 5 mg/mL): 17
- OD600 after 24 hours ([1]; aY-AID culture medium, alanine 10 mg/mL): 18

Structure (SMILES): CC(=O)O.N [Ammonium acetate]
- proliferation when added singly as nitrogen source [2]: did not, as a whole, exhibit favorable proliferation

Structure (SMILES): Cl.N [Ammonium chloride]
- proliferation when added singly as nitrogen source [2]: did not, as a whole, exhibit favorable proliferation

Structure (SMILES): NC(=O)C[C@H](N)C(=O)O.O [Asparagine, L-Asparagine monohydrate]
- OD600 after 24 hours ([1]; AID culture medium, asparagine 0 mg/mL): 15
- OD600 after 24 hours ([1]; AID culture medium, asparagine 0.01 mg/mL): 16
- OD600 after 24 hours ([1]; AID culture medium, asparagine 0.1 mg/mL): 16
- OD600 after 24 hours ([1]; AID culture medium, asparagine 0.5 mg/mL): 17
- OD600 after 24 hours ([1]; AID culture medium, asparagine 1 mg/mL): 16
- effect on proliferation when added at high concentrations ([1]; AID culture medium): proliferation was confirmed to be inhibited
- preferred concentration / content [1]: around 0.5 g/L

Structure (SMILES): [Cl][Fe]([Cl])[Cl] [FeCl3, Anhydrous ferric (III) chloride]
- preferred concentration ([3]; AKD′ culture medium): around 4000 μg/L
- OD600 after 24 hours ([3]; AKD′ culture medium, FeCl3 0 μg/mL): 10
- OD600 after 24 hours ([3]; AKD′ culture medium, FeCl3 0.002 μg/mL): 9
- OD600 after 24 hours ([3]; AKD′ culture medium, FeCl3 0.02 μg/mL): 11
- OD600 after 24 hours ([3]; AKD′ culture medium, FeCl3 0.2 μg/mL): 10
- OD600 after 24 hours ([3]; AKD′ culture medium, FeCl3 2 μg/mL): 13
- OD600 after 24 hours ([3]; AKD′ culture medium, FeCl3 20 μg/mL): 14

Structure (SMILES): CC[C@H](C)[C@H](N)C(=O)O [Isoleucine, L-Isoleucine]
- effect on proliferation when added at high concentrations ([1]; AID culture medium): a positive influence was imparted to proliferation
- preferred concentration / content [1]: around 1 g/L
- OD600 after 24 hours [1, 5]: 16
- OD600 after 24 hours [1, 6]: 17
- OD600 after 24 hours [1, 7]: 16
- OD600 after 24 hours [1, 8]: 17
- OD600 after 24 hours [1, 9]: 19

Structure (SMILES): [Cl-].[K+] [KCl, potassium chloride]
- proliferation ([4]; 0.1% added after 20 hours to SynAA culture medium with NaH2PO4 instead of KH2PO4): proliferation began

Structure (SMILES): O=P([O-])(O)O.[K+] [KH2PO4, potassium dihydrogen phosphate]
- proliferation when the component is not added [4]: extremely low proliferation

Structure (SMILES): O.O.O.O.O.O.O.O=S(=O)([O-])[O-].[Mg+2] [MgSO4, magnesium sulfate-heptahydrate]
- OD600 for 1/100 solutions after 42 hours ([4]; concentration of the substance adjusted to 0%): 0.02
- OD600 for 1/100 solutions after 42 hours ([4]; concentration of the substance adjusted to 0.0001%): 0.04
- OD600 for 1/100 solutions after 42 hours ([4]; concentration of the substance adjusted to 0.001%): 0.09
- OD600 for 1/100 solutions after 42 hours ([4]; concentration of the substance adjusted to 0.01%): 0.12
- OD600 for 1/100 solutions after 42 hours ([4]; concentration of the substance adjusted to 0.1%): 0.13
- OD600 for 1/100 solutions after 42 hours ([4]; concentration of the substance adjusted to 1%): 0.13
- proliferation when the component is not added ([4]; one component of the inorganic ion mix eliminated from SynAA culture medium): extremely low proliferation

Structure (SMILES): O=P([O-])(O)O.[Na+] [NaH2PO4]
- proliferation ([4]; 0.1% added to SynAA culture medium instead of KH2PO4, after 20 hours): proliferation had not occurred

Structure (SMILES): N[C@@H](Cc1ccccc1)C(=O)O [Phenylalanine, L-Phenylalanine]
- effect on proliferation when added at high concentrations ([1]; AID culture medium): a positive influence was imparted to proliferation
- preferred concentration / content [1]: around 1 g/L
- OD600 after 24 hours [1, 5]: 17
- OD600 after 24 hours [1, 6]: 17
- OD600 after 24 hours [1, 7]: 19
- OD600 after 24 hours [1, 8]: 19
- OD600 after 24 hours [1, 9]: 19

Structure (SMILES): N[C@@H](CO)C(=O)O [Serine, L-Serine]
- content at which proliferation particularly increased ([1]; AID culture medium): around 0.5 mg/mL
- effect on proliferation when added at high concentrations ([1]; AID culture medium): a positive influence was imparted to proliferation
- preferred concentration / content [1]: around 0.5 g/L

Structure (SMILES): CC(C)[C@H](N)C(=O)O [Valine, L-VALINE]
- effect on proliferation when added at high concentrations ([1]; AID culture medium): a positive influence was imparted to proliferation
- preferred concentration / content [1]: around 1 g/L
- OD600 after 24 hours [1, 5]: 16
- OD600 after 24 hours [1, 6]: 15
- OD600 after 24 hours [1, 7]: 15
- OD600 after 24 hours [1, 8]: 16
- OD600 after 24 hours [1, 9]: 16

Structure (SMILES): CC(=O)N[C@@H](Cc1ccc(O)cc1)C(=O)O [acetyl tyrosine, N-acetyl tyrosine]
- OD600 after 24 hours ([1]; AID culture medium, acetyl tyrosine 0 mg/mL): 13
- OD600 after 24 hours ([1]; AID culture medium, acetyl tyrosine 0.01 mg/mL): 14
- OD600 after 24 hours ([1]; AID culture medium, acetyl tyrosine 0.1 mg/mL): 15
- OD600 after 24 hours ([1]; AID culture medium, acetyl tyrosine 0.5 mg/mL): 14
- OD600 after 24 hours ([1]; AID culture medium, acetyl tyrosine 1 mg/mL): 15
- OD600 after 24 hours ([1]; AID culture medium, acetyl tyrosine 2 mg/mL): 18
- preferred concentration / content [1]: about 1 g/L

Structure (SMILES): OB(O)O [boric acid]
- essentiality for increasing proliferation [4]: not be essential components

Structure (SMILES): Nc1nc2ncc(CNc3ccc(C(=O)N[C@@H](CCC(=O)O)C(=O)O)cc3)nc2c(=O)[nH]1 [folic acid]
- essentiality for increasing proliferation [4]: not be essential components

Structure (SMILES): O[C@H]1[C@H](O)[C@@H](O)[C@H](O)[C@@H](O)[C@H]1O [inositol, myo-inositol]
- proliferation versus inositol content ([3]; AKD′ culture medium, myo-inositol 0 to 200 μg/mL): Proliferation increased in proportion to an increase in inositol content
- proliferation compared with AKD′ ([3]; inositol added at 10%): below that of AKD′

Structure (SMILES): CC(C)(CO)[C@@H](O)C(=O)NCCC(=O)O [pantothenic acid]
- essentiality for increasing proliferation [4]: essential components
- concentration at which proliferation was inhibited ([3]; AKD′ culture medium): 40 µg/mL
- preferred concentration ([3]; AKD′ culture medium): around 4000 μg/L
- proliferation at a content of 0 ([3]; AKD′ culture medium without the substance): no proliferation whatsoever

Structure (SMILES): Nc1ccc(C(=O)O)cc1 [para-aminobenzoic acid]
- effect on proliferation ([1]; vitamins contained in the AID culture medium (FIG. 38)): no effect to particularly increase proliferation

Structure (SMILES): Cc1cc2nc3c(=O)[nH]c(=O)nc-3n(C[C@H](O)[C@H](O)[C@H](O)CO)c2cc1C [riboflavin]
- essentiality for increasing proliferation [4]: not be essential components

Structure (SMILES): NCCC(=O)O [β-alanine]
- substitution potential of pantothenic acid ([1]; AID culture medium (FIG. 39A)): confirmed to be substituted with pantothenic acid
- concentration capable of substitution with pantothenic acid ([1]; AID culture medium (FIG. 39B)): ≥ 0.4 µg/mL
